This note sets out measurements from US20260347399A1, “BRAIN PENETRATING PEPTIDES AND METHODS OF USE” (priority 2022, published 2026).

Ends that are not written are not given here.

The subject of one data set is P3 stem cells. Put plainly: In vitro phage binding to cells. Type of data set: cell-based, human. To be noted: 4 °C, 1 h, highest ratio. Here is the method:
To assess the binding of Cerepep phage, the cells were cultured in 24-well plates on polylysine coated glass coverslips until 80-90% confluency. The cells were incubated with Cerepep or control insertless peptide-phage at a final concentration of 5×10^7 pfu in 1 ml of DMEM+BSA (1%) at 4 °C for 1 h on a rocking platform. The wells were washed 4 times with 1 ml of DMEM+BSA (1%), the cells were lysed in 1 ml LB+NP40 and the amount of phage bound to the cells was determined by titering.
Binding of SRRVISRAKLAAAL (SEQ ID NO:9) phage to a panel of different cell lines was studied in vitro.

The next data set relates to mouse brain. The data set can be described thus: In vivo phage display with CX4CYX library. The protocol:
In vivo phage display with CX4CYX library was performed in three selection rounds. Phage library was injected intravenously to Balb/c mice and allowed to circulate for one hour. After circulation, the animals were anesthetized and perfused intracardially with acid and detergent buffers. Brain and control organs were collected and homogenized in 1% NP40-LB. Bound phages were rescued by amplification in E. coli and their genomic DNA was sequenced by Ion Torrent next generation DNA sequencing system.
A novel phage library CX4CYX was constructed based on the alanine-leucine screen to find new brain homing peptides). This knowledge directed us to construct a novel phage library CX4CYX (X—any amino acid), where Cys1, Cys6 and Tyr7 remained in their intact positions, and the four amino acid variable-domain laid between the cysteines, and one amino acid variability after Tyr7. Three rounds of phage bio-panning was performed to allow enrichment of peptides in the brain. Again acid and detergent buffers were used for perfusion to remove non-specifically bound phages from the brain after systemic administration of phage library (round 1) and recovered brain phage pools (round 2 and 3). HTS reads from round 1 to round 3 indicated decent enrichment of in-frame peptides in the brain (Table 6).

In data set [1] the test system is WT-GBM, VEGFko, U87MG or NCH421k GBM. The data set can be described thus: CVG peptide-phage homing in glioblastoma (four models). To be noted: peptide-phage i.v., 1 h. Type of data set: in vivo, mouse. Here is the method: To assess homing of CVG peptide in glioblastoma, CVGTNCY (SEQ ID NO:2) peptide-phage was injected iv into mice bearing either WT-GBM, VEGFko, U87MG or NCH421k GBM, and to mice without a tumor. At one hour time point mice were perfused, brains and control organs collected and titered. […] (FIGS. 17A-17B) Distribution of CVG peptide in GBM and brain parenchyma was also assessed. CVGTNCY (SEQ ID NO:2) peptide or its scrambled version (CVYTCNG; (SEQ ID NO: 68)) was injected iv into glioma bearing mice, after 1 hour circulation mice were perfused and tissues of interest snap-frozen in liquid nitrogen.

The next data set concerns the target T1, mutant NRP1 (Homo sapiens, UniProt O14786).
T1 sequence (O14786 273-586 limits assumed): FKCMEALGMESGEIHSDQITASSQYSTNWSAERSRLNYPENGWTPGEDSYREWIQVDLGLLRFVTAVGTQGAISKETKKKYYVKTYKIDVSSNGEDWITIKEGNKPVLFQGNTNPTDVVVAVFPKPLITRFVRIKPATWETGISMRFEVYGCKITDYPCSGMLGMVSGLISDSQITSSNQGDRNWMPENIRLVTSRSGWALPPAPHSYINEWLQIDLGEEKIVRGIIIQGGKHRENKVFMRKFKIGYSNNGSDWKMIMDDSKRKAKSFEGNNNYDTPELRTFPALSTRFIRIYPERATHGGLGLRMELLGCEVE
The data set can be described thus: Peptide-phage binding on ELISA plate. The protocol: (§1) Reelin protein (#8546-MR-050; R&D Systems), NRP-1 b1b2 (wt and mutant) or 5% BSA was immobilized on Costar 96-Well ELISA plate (#3590, Corning Life Sciences, Tewksbury, MA, USA). The multiwell plates were coated with 20 μg/ml recombinant protein in 100 μl of PBS overnight at +4 °C, followed by blocking with 1% bovine serum albumin (BSA) in PBS overnight at +4 °C. The phage (5×10^8 pfu in 100 μl of PBS-BSA) was incubated overnight at +4 °C, followed by 6 washes with PBS containing 1% BSA and 0.1% Tween-20 (washing buffer) to remove background phages. BLT5615 OD600=0.5 containing 2 mM IPTG was used to recover the phages and determine the titer of samples.
(§2) Next, an affinity chromatography was performed to identify a receptor of the CVGTNCY (SEQ ID NO:2), and selected a receptor candidate, which is a secreted extracellular matrix protein Reelin. CVGTNCY (SEQ ID NO:2) binding to Reelin protein was tested by cell free method on ELISA plate. Recombinant human Reelin protein (Ser1221-Gln2666; 163 kDa) was used to coat the ELISA plate and the CVGTNCY (SEQ ID NO:2) peptide-phage was allowed to bind to it. After several washes, the titer of the experiment was determined to rate on the binding efficiency.
(§3) Reelin was identified from affinity chromatography proteomics data. […] The binding efficiency was evaluated based on the titer (PFU/ml) of each sample. […]

The target of the next data set is T2, NRP-1 (Homo sapiens, UniProt O14786).
T2 sequence (O14786 273-586 limits assumed): T1 sequence (O14786 273-586 limits assumed)
Put plainly: Peptide-phage binding on ELISA plate. The protocol: as §1, §2, §3

For “SRRVISRAKLAAAL [Cerepep, SRRVISRAKLAAAL]”, the “binding of peptide-phage, fold over insertless phage” value in the data set on P3 stem cells is “at least 50 fold”.

In the data set with mouse brain (round 1), CVGTNCY came in with an R1 reads of 12 reads. The R3 reads in the data set with mouse brain (round 3) came to 37038 reads. Moreover, in the data set with mouse brain (round 3, vs CAGALCY), the “reads in the brain compared to CAGALCY” value was “about 40 times”. In the data set on mouse brain (round 3 / round 1), the “R3 > R1 (ratio of sequencing reads between round 3 and round 1)” value came out at 3087. Also, in data set [1], the “PFU per mg of GBM vs normal brain” value is “greater than normal brain tissue” and the “ratio of CVG over G7 in GBM vs normal brain” value is recorded as “lower than in normal brain”. For the same substance, in the data set with mutant NRP1, the “binding to mutant NRP1” value is given as “no binding was detected”. In addition, the “binding to NRP-1” value with NRP-1 is recorded as “no binding was detected”.
